Values of other authors as cited in publication PMC5641599 (Molecular Metabolism, 2017).
Like-named read-outs stand apart in the source and are kept apart here.

What was measured:
Conditions in all cases: cited from earlier work
MC4R variants [1] = system: MC4R variants
MC4R variants [2] = system: MC4R variants; remark: listed apart in the source
MC4R variants [3] = system: MC4R variants; remark: listed apart in the source
MC4R variants [4] = system: MC4R variants; remark: listed apart in the source
[5] = ref Xiang Z, Biochemistry, 2010
[6] = COS-7 cell line, ref Hughes DA, Hum Genet, 2009
[7] = COS-7 cell line, ref Brumm H, Obesity, 2012
[8] = ref Rong R, Clin Endocrinol, 2006
[9] = ref Xiang Z, Biochemistry, 2006
[10] = ref Lubrano-Berthelier C, J Clin Endocrinol Metab, 2006
[11] = MC4R D126Y, ref Wang ZQ, Biochim Biophys Acta, 2011
[12] = MC4R D146N, ref Wang ZQ, Biochim Biophys Acta, 2011
[13] = MC4R F201L, ref Wang ZQ, Biochim Biophys Acta, 2011
[14] = MC4R G231V, ref Wang ZQ, Biochim Biophys Acta, 2011
[15] = MC4R I170del, ref Wang ZQ, Biochim Biophys Acta, 2011
[16] = MC4R I186V, ref Wang ZQ, Biochim Biophys Acta, 2011
[17] = MC4R I195S, ref Wang ZQ, Biochim Biophys Acta, 2011
[18] = MC4R P260Q, ref Wang ZQ, Biochim Biophys Acta, 2011
[19] = MC4R Q307X, ref Wang ZQ, Biochim Biophys Acta, 2011
[20] = MC4R T248A, ref Huang H, J Mol Endocrinol, 2012
[21] = ref Wang ZQ, Biochim Biophys Acta, 2011

R18L
Cell surface expression (MC4R variants [1]; ref Srinivasan S, J Clin Invest, 2004): 95 % of WT
Cell surface expression (MC4R variants [1]; [5]): 95 % of WT

S30F
Basal activity (MC4R variants [2]; COS-7 cell line, ref Hinney A, J Clin Endocrinol Metab, 2003): 140 % of WT
Cell surface expression (MC4R variants [1]; S30F variant alone, ref Lubrano-Berthelier C, Hum Mol Genet, 2003): 120 % of WT

S30F/G252S
Cell surface expression (MC4R variants [1]; both variants on the same allele, ref Lubrano-Berthelier C, Hum Mol Genet, 2003): 60 % of WT
Cell surface expression (MC4R variants [1]; both variants on the same allele, ref Nijenhuis WA, J Biol Chem, 2003): 69 % of WT

S36T
Basal activity (MC4R variants [2]; [6]): 83 % of WT
Cell surface expression (MC4R variants [1]; [6]): 107 % of WT

S36Y
Cell surface expression (MC4R variants [1]; [5]): 90 % of WT

W16X (MVNSTHRGMHTSLHL; nonsense W16X; UniProt P32245 1-15, looked up, fragment)
Cell surface expression (MC4R variants [1]; [7]): 5 % of WT
Cell surface expression (MC4R variants [1]; HEK293 cell line, ref Bolze F, Pharmacogenomics J, 2013): 0 % of WT

Y35C
Basal activity (MC4R variants [2]; [8]): 172 % of WT
Cell surface expression (MC4R variants [1]; [8]): 100 % of WT

Y35X (MVNSTHRGMHTSLHLWNRSSYRLHSNASESLGKG; nonsense Y35X; UniProt P32245 1-34, looked up, fragment)
Cell surface expression (MC4R variants [1]; [7]): 0 % of WT
Cell surface expression (MC4R variants [1]; [9]): 5 % of WT

Y35X;D37V (MVNSTHRGMHTSLHLWNRSSYRLHSNASESLGKG; nonsense Y35X; D37V; UniProt P32245 1-34, looked up, fragment)
Basal activity (MC4R variants [2]; [10]): 10 % of WT
Cell surface expression (MC4R variants [1]; [10]): 0 % of WT

Y287X
Cell surface expression (MC4R variants [1]; [9]): 30 % of WT
Cell surface expression (MC4R variants [1]; ref Yeo GS, Hum Mol Genet, 2003): 0 % of WT

β-MSH
cAMP Emax - Ligand no.2 (MC4R variants [3]; MC4R C40Y, COS-7 cell line, ref Hughes DA, Hum Genet, 2009): 98.0 % of WT
cAMP Emax - Ligand no.2 (% of WT) (MC4R variants [3]; MC4R C271R, COS-7 cell line, ref Tarnow P, J Biol Chem, 2003): 22.5 % of WT
cAMP Emax - Ligand no.2 (MC4R variants [3]; MC4R D37G, ref Hughes DA, Hum Genet, 2009): 75.0 % of WT
cAMP Emax - Ligand no.2 (% of WT) (MC4R variants [3]; [11]): 0.0 % of WT
cAMP Emax - Ligand no.2 (% of WT) (MC4R variants [3]; [12]): 96.1 % of WT
cAMP Emax - Ligand no.2 (% of WT) (MC4R variants [3]; [13]): 100.0 % of WT
cAMP Emax - Ligand no.2 (% of WT) (MC4R variants [3]; MC4R F202L, COS-7 cell line, ref Hughes DA, Hum Genet, 2009): 79.0 % of WT
cAMP Emax - Ligand no.2 (MC4R variants [3]; MC4R F280AfsX12, ref Xiang Z, Biochemistry, 2006): 0.0 % of WT
cAMP Emax - Ligand no.2 (% of WT) (MC4R variants [3]; MC4R G181D, ref Xiang Z, Biochemistry, 2010): 0.0 % of WT
cAMP Emax - Ligand no.2 (% of WT) (MC4R variants [3]; [14]): 104.9 % of WT
cAMP Emax - Ligand no.2 (% of WT) (MC4R variants [3]; MC4R H158R, COS-7 cell line, ref Hinney A, J Clin Endocrinol Metab, 2006): 122.0 % of WT
cAMP Emax - Ligand no.2 (% of WT) (MC4R variants [3]; MC4R I125K, ref Xiang Z, Biochemistry, 2006): 0.0 % of WT
cAMP Emax - Ligand no.2 (% of WT) (MC4R variants [3]; MC4R I170V, COS-7 cell line, ref Hughes DA, Hum Genet, 2009): 97.0 % of WT
cAMP Emax - Ligand no.2 (MC4R variants [3]; [15]): 0.0 % of WT
cAMP Emax - Ligand no.2 (% of WT) (MC4R variants [3]; [16]): 65.8 % of WT
cAMP Emax - Ligand no.2 (% of WT) (MC4R variants [3]; [17]): 94.1 % of WT
cAMP Emax - Ligand no.2 (MC4R variants [3]; MC4R I251WfsX34, ref Xiang Z, Biochemistry, 2010): 0.0 % of WT
cAMP Emax - Ligand no.2 (MC4R variants [3]; MC4R L211MfsX6, ref Xiang Z, Biochemistry, 2006): 0.0 % of WT
cAMP Emax - Ligand no.2 (% of WT) (MC4R variants [3]; MC4R M200V, COS-7 cell line, ref Hinney A, J Clin Endocrinol Metab, 2006): 91.0 % of WT
cAMP Emax - Ligand no.2 (% of WT) (MC4R variants [3]; [18]): 20.0 % of WT
cAMP Emax - Ligand no.2 (% of WT) (MC4R variants [3]; MC4R Q156R, COS-7 cell line, ref Hinney A, J Clin Endocrinol Metab, 2006): 92.0 % of WT
cAMP Emax - Ligand no.2 (MC4R variants [3]; MC4R Q307X, ref Santoro N, BMC Med Genet, 2009): 0.0 % of WT
cAMP Emax - Ligand no.2 (MC4R variants [3]; [19]): 0.0 % of WT
cAMP Emax - Ligand no.2 (MC4R variants [3]; MC4R R7C, COS-7 cell line, ref Hinney A, J Clin Endocrinol Metab, 2006): 83.0 % of WT
cAMP Emax - Ligand no.2 (% of WT) (MC4R variants [3]; MC4R R236H, COS-7 cell line, ref Hinney A, J Clin Endocrinol Metab, 2006): 96.0 % of WT
cAMP Emax - Ligand no.2 (MC4R variants [3]; MC4R S36T, COS-7 cell line, ref Hughes DA, Hum Genet, 2009): 82.0 % of WT
cAMP Emax - Ligand no.2 (% of WT) (MC4R variants [3]; MC4R S136F, COS-7 cell line, ref Tarnow P, Obes Facts, 2008): 23.0 % of WT
cAMP Emax - Ligand no.2 (% of WT) (MC4R variants [3]; MC4R S191T, COS-7 cell line, ref Hughes DA, Hum Genet, 2009): 97.0 % of WT
cAMP Emax - Ligand no.2 (% of WT) (MC4R variants [3]; MC4R T162R, COS-7 cell line, ref Ochoa MC, Clin Endocrinol, 2007): 80.0 % of WT
cAMP Emax - Ligand no.2 (% of WT) (MC4R variants [3]; [20]): 79.5 % of WT
cAMP Emax - Ligand no.2 (% of WT) (MC4R variants [3]; MC4R V166I, COS-7 cell line, ref Hinney A, J Clin Endocrinol Metab, 2006): 105.0 % of WT
cAMP Emax - Ligand no.2 (% of WT) (MC4R variants [3]; MC4R V166I, COS-7 cell line, ref Hughes DA, Hum Genet, 2009): 105.0 % of WT
cAMP Emax - Ligand no.2 (% of WT) (MC4R variants [3]; MC4R W174C, ref Xiang Z, Biochemistry, 2010): 0.0 % of WT
cAMP Emax - Ligand no.2 (MC4R variants [3]; MC4R Y35X, ref Xiang Z, Biochemistry, 2006): 0.0 % of WT
Binding Bmax - Ligand no.2 (% of WT) (MC4R variants [4]; [11]): 0.0 % of WT
Binding Bmax - Ligand no.2 (% of WT) (MC4R variants [4]; [12]): 23.9 % of WT
Binding Bmax - Ligand no.2 (% of WT) (MC4R variants [4]; [13]): 116.0 % of WT
Binding Bmax (% of WT) (MC4R variants [4]; MC4R F280L, ref Wang ZQ, Biochim Biophys Acta, 2011): 57.4 % of WT
Binding Bmax - Ligand no.2 (% of WT) (MC4R variants [4]; [14]): 123.2 % of WT
Binding Bmax (% of WT) (MC4R variants [4]; MC4R H76R, ref Wang ZQ, Biochim Biophys Acta, 2011): 81.7 % of WT
Binding Bmax (% of WT) (MC4R variants [4]; MC4R I69R, ref Wang ZQ, Biochim Biophys Acta, 2011): 0.0 % of WT
Binding Bmax - Ligand no.2 (MC4R variants [4]; [15]): 0.0 % of WT
Binding Bmax - Ligand no.2 (% of WT) (MC4R variants [4]; [16]): 150.5 % of WT
Binding Bmax - Ligand no.2 (% of WT) (MC4R variants [4]; [17]): 71.2 % of WT
Binding Bmax (% of WT) (MC4R variants [4]; MC4R I289L, ref Wang ZQ, Biochim Biophys Acta, 2011): 127.4 % of WT
Binding Bmax (% of WT) (MC4R variants [4]; MC4R M79I, ref Wang ZQ, Biochim Biophys Acta, 2011): 98.2 % of WT
Binding Bmax - Ligand no.2 (% of WT) (MC4R variants [4]; [18]): 0.0 % of WT
Binding Bmax - Ligand no.2 (MC4R variants [4]; [19]): 0.0 % of WT
Binding Bmax (% of WT) (MC4R variants [4]; MC4R R305S, ref Wang ZQ, Biochim Biophys Acta, 2011): 128.1 % of WT
Binding Bmax (% of WT) (MC4R variants [4]; MC4R S94N, ref Wang ZQ, Biochim Biophys Acta, 2011): 41.0 % of WT
Binding Bmax - Ligand no.2 (% of WT) (MC4R variants [4]; [20]): 125.0 % of WT
Binding Bmax (% of WT) (MC4R variants [4]; MC4R Y332C, ref Wang ZQ, Biochim Biophys Acta, 2011): 129.6 % of WT
Binding Bmax (% of WT) (MC4R variants [4]; MC4R Y332H, ref Wang ZQ, Biochim Biophys Acta, 2011): 150.0 % of WT

B1: Y80X (protein, UniProt P32245 1-79, looked up, fragment)
chain: MVNSTHRGMHTSLHLWNRSSYRLHSNASESLGKGYSDGGCYEQLFVSPEVFVTLGVISLLENILVIVAIAKNKNLHSPM
modifications: nonsense Y80X
Basal activity (MC4R variants [2]; [10]): 10 % of WT
Cell surface expression (MC4R variants [1]; [10]): 0 % of WT

B2: I170del (protein, UniProt P32245 1-332, looked up, variant I170*)
Melanocortin receptor 4: MVNSTHRGMHTSLHLWNRSSYRLHSNASESLGKGYSDGGCYEQLFVSPEVFVTLGVISLLENILVIVAIAKNKNLHSPMYFFICSLAVADMLVSVSNGSETIVITLLNSTDTDAQSFTVNIDNVIDSVICSSLLASICSLLSIAVDRYFTIFYALQYHNIMTVKRVGIISCIWAACTVSGILFIIYSDSSAVIICLITMFFTMLALMASLYVHMFLMARLHIKRIAVLPGTGAIRQGANMKGAITLTILIGVFVVCWAPFFLHLIFYISCPQNPYCVCFMSHFNLYLILIMCNSIIDPLIYALRSQELRKTFKEIICCYPLGGLCDLSSRY
Basal activity (MC4R variants [2]; [21]): 25 % of WT
Cell surface expression (MC4R variants [1]; [21]): 10 % of WT
